Test results published in ChEMBL document CHEMBL3045663, “Synthesis and Activity of Novel Acaricidal/Insecticidal 2, 4-Diphenyl-1, 3-oxazolines” (J Pestic Sci, 2002).
Values after ≈ are worked out from the molar mass of the structure shown.

Columns and labels:
Assay type in all cases: functional
Myzus persicae = experiment: Insecticidal activity against Myzus persicae (green peach aphid) in compound treated radish leaf assessed as mortality at 500 ppm
Plutella xylostella = experiment: Insecticidal activity against Plutella xylostella (diamondback moth) in compound treated radish leaf assessed as mortality at 500 ppm
Nephotettix cincticeps = experiment: Insecticidal activity against Nephotettix cincticeps (green rice leafhopper) in compound treated rice seedlings assessed as mortality at 500 ppm
Tetranychus urticae = experiment: Acaricidal activity against Tetranychus urticae (two-spotted spider mite) in compound treated kidney bean leaf assessed as larvicidal activity

SMILES | mortality at 500 ppm (Myzus persicae) [%] | mortality at 500 ppm (Plutella xylostella) [%] | mortality at 500 ppm (Nephotettix cincticeps) [%] | LC50 (Tetranychus urticae) [µg/mL]
CCOc1cc(Br)ccc1C1COC(c2c(F)cccc2F)=N1 (centres undefined) | 0 | 10 | 100 | 0.1 (≈ 0.262 µM)
Cc1ccc(C2COC(c3c(F)cccc3F)=N2)cc1C (centres undefined) | 100 | 0 | 85 | 1 (≈ 3.48 µM)
CCCCCCc1ccc(C2COC(c3c(F)cccc3F)=N2)cc1F (centres undefined) | 0 | 0 | 0 | 0.1 (≈ 0.277 µM)
CCCCCCc1ccc(C2COC(c3c(F)cccc3F)=N2)cc1Cl (centres undefined) | 0 | 0 | 0 | 0.1 (≈ 0.265 µM)
Fc1ccc(C2COC(c3c(F)cccc3F)=N2)cc1F (centres undefined) | 0 | 0 | 0 | 0.1 (≈ 0.339 µM)
Fc1ccc(C2COC(c3c(F)cccc3F)=N2)cc1Cl (centres undefined) | 100 | 60 | 10 | 0.1 (≈ 0.321 µM)
Fc1cc(C2COC(c3c(F)cccc3F)=N2)ccc1Cl (centres undefined) | 100 | 35 | 60 | 0.01 (≈ 0.0321 µM)
Fc1cccc(F)c1C1=NC(c2ccc(Cl)c(Cl)c2)CO1 (centres undefined) | 100 | 60 | 0 | 0.1 (≈ 0.305 µM)
CCOc1cc(C(C)C)ccc1C1COC(c2c(F)cccc2F)=N1 (centres undefined) | 100 | 60 | 100 | 0.01 (≈ 0.029 µM)
CCCOc1cc(C(C)C)ccc1C1COC(c2c(F)cccc2F)=N1 (centres undefined) | 100 | 85 | 100 | < 0.001
COc1cc(C(C)(C)C)ccc1C1COC(c2c(F)cccc2F)=N1 (centres undefined) | 100 | 85 | 35 | 0.001 (≈ 0.0029 µM)
CCCOc1cc(C(C)(C)C)ccc1C1COC(c2c(F)cccc2F)=N1 (centres undefined) | 100 | 85 | 60 | 0.001 (≈ 0.00268 µM)
CCCCOc1cc(C(C)(C)C)ccc1C1COC(c2c(F)cccc2F)=N1 (centres undefined) | 100 | 35 | 0 | 0.01 (≈ 0.0258 µM)
CCCCCCOc1cc(C(C)(C)C)ccc1C1COC(c2c(F)cccc2F)=N1 (centres undefined) | 10 | 100 | 60 | 0.1 (≈ 0.241 µM)
CCCCCc1ccc(C2COC(c3c(F)cccc3F)=N2)c(OCC)c1 (centres undefined) | 85 | 35 | 100 | < 0.001
CCCCCc1ccc(C2COC(c3c(F)cccc3F)=N2)c(OCCC)c1 (centres undefined) | 85 | 85 | 60 | 0.001 (≈ 0.00258 µM)
CCCCCCCCc1ccc(C2COC(c3c(F)cccc3F)=N2)c(OC)c1 (centres undefined) | 100 | 85 | 0 | 0.01 (≈ 0.0249 µM)
CCCCCCCCCc1ccc(C2COC(c3c(F)cccc3F)=N2)c(OC)c1 (centres undefined) | 100 | 100 | 10 | 0.001 (≈ 0.00241 µM)
CCCCCCCCCCc1ccc(C2COC(c3c(F)cccc3F)=N2)c(OC)c1 (centres undefined) | 100 | 85 | 10 | 0.01 (≈ 0.0233 µM)

SMILES | mortality at 500 ppm (Myzus persicae) [%] | mortality at 500 ppm (Plutella xylostella) [%] | mortality at 500 ppm (Nephotettix cincticeps) [%] | LC50 (Tetranychus urticae) [µg/mL]
CCc1ccc(C2COC(c3c(F)cccc3F)=N2)c(F)c1 (centres undefined) | 0 | 0 | 0 | 0.1 (≈ 0.328 µM)
CCCCCCc1ccc(C2COC(c3c(F)cccc3F)=N2)c(F)c1 (centres undefined) | 100 | 100 | 60 | < 0.001
CCCCCCCc1ccc(C2COC(c3c(F)cccc3F)=N2)c(F)c1 (centres undefined) | 100 | 100 | 0 | < 0.001
CCCCCCCCc1ccc(C2COC(c3c(F)cccc3F)=N2)c(F)c1 (centres undefined) | 100 | 100 | 0 | < 0.001
CCCCCCCCCCc1ccc(C2COC(c3c(F)cccc3F)=N2)c(F)c1 (centres undefined) | 10 | 100 | 0 | 0.001 (≈ 0.0024 µM)
CCCCCCCCCCCCc1ccc(C2COC(c3c(F)cccc3F)=N2)c(F)c1 (centres undefined) | 0 | 100 | 0 | 0.01 (≈ 0.0224 µM)
CCc1ccc(C2COC(c3c(F)cccc3F)=N2)c(Cl)c1 (centres undefined) | 0 | 0 | 0 | 0.001 (≈ 0.00311 µM)
CC(C)Cc1ccc(C2COC(c3c(F)cccc3F)=N2)c(Cl)c1 (centres undefined) | 100 | 100 | 60 | < 0.001
CCCCCCc1ccc(C2COC(c3c(F)cccc3F)=N2)c(Cl)c1 (centres undefined) | 100 | 100 | 100 | < 0.001
CCCCCCCCc1ccc(C2COC(c3c(F)cccc3F)=N2)c(Cl)c1 (centres undefined) | 100 | 85 | 0 | < 0.001
CCCCCCCCCCc1ccc(C2COC(c3c(F)cccc3F)=N2)c(Cl)c1 (centres undefined) | 0 | 85 | 0 | 0.1 (≈ 0.23 µM)
CCCCCCCCCCCCc1ccc(C2COC(c3c(F)cccc3F)=N2)c(Cl)c1 (centres undefined) | 0 | 60 | 0 | 0.1 (≈ 0.216 µM)
COc1cc(F)ccc1C1COC(c2c(F)cccc2F)=N1 (centres undefined) | 100 | 10 | 100 | 0.1 (≈ 0.325 µM)
CCOc1cc(F)ccc1C1COC(c2c(F)cccc2F)=N1 (centres undefined) | 100 | 85 | 100 | 0.001 (≈ 0.00311 µM)
CCCCOc1cc(F)ccc1C1COC(c2c(F)cccc2F)=N1 (centres undefined) | 60 | 85 | 100 | < 0.001
Fc1ccc(C2COC(c3c(F)cccc3F)=N2)c(F)c1 (centres undefined) | 100 | 85 | 35 | 0.01 (≈ 0.0339 µM)
Fc1ccc(C2COC(c3c(F)cccc3F)=N2)c(Cl)c1 (centres undefined) | 100 | 0 | 35 | 0.1 (≈ 0.321 µM)
Cc1cc(Cl)ccc1C1COC(c2c(F)cccc2F)=N1 (centres undefined) | 100 | 10 | 35 | 0.1 (≈ 0.325 µM)
COc1cc(Cl)ccc1C1COC(c2c(F)cccc2F)=N1 (centres undefined) | 100 | 10 | 100 | 0.1 (≈ 0.309 µM)

SMILES | mortality at 500 ppm (Myzus persicae) [%] | mortality at 500 ppm (Plutella xylostella) [%] | mortality at 500 ppm (Nephotettix cincticeps) [%] | LC50 (Tetranychus urticae) [µg/mL]
CCOc1cc(Cl)ccc1C1COC(c2c(F)cccc2F)=N1 (centres undefined) | 100 | 100 | 100 | 0.1 (≈ 0.296 µM)
Fc1cc(Cl)ccc1C1COC(c2c(F)cccc2F)=N1 (centres undefined) | 100 | 0 | 0 | < 0.001
Fc1cccc(F)c1C1=NC(c2ccc(Cl)cc2Cl)CO1 (centres undefined) | 100 | 60 | 60 | 0.01 (≈ 0.0305 µM)
CCCCCCCCCCCCCCOc1ccc(C2COC(c3c(F)cccc3F)=N2)cc1 (centres undefined) | 60 | 85 | 10 | 0.01 (≈ 0.0212 µM)
CSc1ccc(C2COC(c3c(F)cccc3F)=N2)cc1 (centres undefined) | 100 | 0 | 0 | 0.1 (≈ 0.327 µM)
C[S+]([O-])c1ccc(C2COC(c3c(F)cccc3F)=N2)cc1 (centres undefined) | 60 | 60 | 0 | 10 (≈ 31.1 µM)
CS(=O)(=O)c1ccc(C2COC(c3c(F)cccc3F)=N2)cc1 (centres undefined) | 85 | 60 | 0 | 100 (≈ 296 µM)
CC(C)Sc1ccc(C2COC(c3c(F)cccc3F)=N2)cc1 (centres undefined) | 85 | 10 | 10 | 0.1 (≈ 0.3 µM)
CCCCCCCCCSc1ccc(C2COC(c3c(F)cccc3F)=N2)cc1 (centres undefined) | 60 | 85 | 0 | 0.01 (≈ 0.0239 µM)
Fc1cccc(F)c1C1=NC(c2ccc(Br)cc2)CO1 (centres undefined) | 100 | 35 | 10 | 0.001 (≈ 0.00296 µM)
Fc1cccc(F)c1C1=NC(c2ccc(C(F)(F)F)cc2)CO1 (centres undefined) | 100 | 85 | 60 | 0.01 (≈ 0.0306 µM)
Fc1cccc(F)c1C1=NC(c2ccc(OC(F)(F)F)cc2)CO1 (centres undefined) | 100 | 85 | 35 | 0.001 (≈ 0.00291 µM)
Fc1cccc(F)c1C1=NC(c2ccc(OCC(F)(F)F)cc2)CO1 (centres undefined) | 100 | 35 | 100 | < 0.001
Oc1ccc(C2COC(c3c(F)cccc3F)=N2)cc1 (centres undefined) | 0 | 10 | 60 | 10 (≈ 36.3 µM)
CN(C)c1ccc(C2COC(c3c(F)cccc3F)=N2)cc1 (centres undefined) | 85 | 0 | 0 | 10 (≈ 33.1 µM)
C[Si](C)(C)c1ccc(C2COC(c3c(F)cccc3F)=N2)cc1 (centres undefined) | 100 | 100 | 60 | < 0.001
Cc1ccc(C2COC(c3c(F)cccc3F)=N2)c(C)c1 (centres undefined) | 100 | 35 | 100 | 10 (≈ 34.8 µM)
CCCCCCCCc1ccc(C2COC(c3c(F)cccc3F)=N2)c(C)c1 (centres undefined) | 100 | 100 | 100 | < 0.001
